# From patent US11419826B2, “Surface-modified mesoporous silica nanoparticle for blood-brain barrier penetration,tumor targeting and cancer metastasis treatment, methods of production and uses thereof” (NANO TARGETING & THERAPY BIOPHARMA INC., priority 2019, dated 2022)
# Experiments:
# [1] = Pharmacokinetics and quantification of Dox accumulation in plasma and brain; conditions: single i.v. dose, Dox 7.5 mg/kg; after 15 minutes
# Method: Healthy balb/c mice were single dose intravenously injected with Dox or Dox@NTT0_18 at 7.5 mg/kg. To determine the Dox concentration in plasma and brain, blood samples were taken at 15, 30, 60, 180, 360 and 1440 minutes after injection, and after the blood samples were taken, each animal was sacrificed and perfused with PBS to obtain the brain. Dox was extracted from the samples (plasma and brain respectively) for the determination of dox concentration with a spectrophotometer.
# Mice received a single dose of Dox or Dox@NTT0_18 (MSN-PEG+TA-loaded Dox) through intravenous injection (all at Dox dose 7.5 mg/kg). To determine the Dox concentration in plasma and brain, blood samples were taken at 15, 30, 60, 180, 360 and 1440 minutes after injection and animals were sacrificed and perfused with PBS at each time point. Dox was extracted from plasma and brain and the Dox concentration was measured using a spectrophotometer. The concentration versus time curves of Dox in plasma with and without MSN-PEG+TA encapsulated was also established.
# U87-LUC glioma cells = assay: U87-LUC orthotopic glioma xenograft mouse model; assay type: in vivo; conditions: Dox 10 mg/kg i.v. every 4 days for 3 times
# Method: U87-LUC glioma cells were cultured at 37° C. in a humidified 5% CO2 atmosphere in minimum essential median (MEM) supplemented with 10% fetal bovine serum and 1% penicillin/streptomycin (Invitrogen). Cells were harvested by trypsinization, washed once with phosphate-buffered saline (PBS), and re-suspended (1×10^5 cell/μL) in MEM for subsequent implantation into the striatum of mouse brains. Pathogen-free male NU/NU mice (5 to 7 weeks old) were purchased from BioLASCO (Taiwan). Mice were housed and maintained in a controlled environment and all procedures were performed in accordance with the experimental animal care guidelines of the Animal Committee of Chang Gung University. To implant U87-LUC tumor cells, animals were anesthetized with 2% isoflurane gas and immobilized on a stereotactic frame. […] The growth of the brain tumor was monitored by IVIS and MRI.
# Dox is a well-known anti-cancer drug approved for treatment of multiple cancers. […] To evaluate the efficacy of Dox@MSN-PEG+TA anti-brain tumor in vivo, the U87-LUC brain cells were implanted orthotopically into nude mice to serve as the U87-LUC xenograft mouse model; U87-LUC cells can express luciferase for quantification of tumor cells in vivo. […] The distribution of MSN-PEG+TA and Dox@MSN-PEG+TA in brain tissue and tumor were assessed from the tumor sections from nanoparticle treated mice. […]
compound,measurement,setting,value
"COc1cccc2c1C(=O)c1c(O)c3c(c(O)c1C2=O)C[C@@](O)(C(=O)CO)C[C@@H]3O[C@H]1C[C@H](N)[C@H](O)[C@H](C)O1 [Dox, doxorubicin]",Dox concentration in plasma,[1],lower than 0.2 μg/mL
same,toxicity / body weight of treated mice,U87-LUC glioma cells,causes death of the host
same,tumor size,U87-LUC glioma cells; during the treatment period,shrunk during the treatment period
